According to patent US12077503B2, “Substituted cyclic amides and their use as herbicides” (FMC CORPORATION, priority 2015, dated 2024):

What was measured:
Assay type in all cases: in vivo
[1] = tested on: ivy-leaved morning glory (Ipomoea hederacea); assay: Test G Pre-Emergence Protocol; details: Ipomoea, pre-emergence, 312 h, evaluated after 13 days
How it was run: (§1)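 Under a 24/16° C day/night regime with 14 h light and 65% humidity, sown pots were sprayed after one day with compound (15.625, 62.5 or 250 g/ha; 50:50 acetone/water, 0.5% Tween 20). Damage was assessed visually 13 days later, 0 to 100.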

[2] = tested on: redroot pigweed (Amaranthus retroflexus); assay: Test G Pre-Emergence Protocol; details: Amaranthus retroflexus, pre-emergence, 312 h, evaluated after 13 days
How it was run: as §1

[3] = tested on: velvetleaf (Abutilon theophrasti); assay: Test G Pre-Emergence Protocol; details: Abutilon theophrasti, pre-emergence, 312 h, evaluated after 13 days
How it was run: as §1

[4] = tested on: barnyardgrass (Echinochloa crus-galli); assay: Test G Pre-Emergence Protocol; details: Echinochloa crus-galli, pre-emergence, 312 h, evaluated after 13 days
How it was run: as §1

[5] = tested on: giant foxtail (Setaria faberi); assay: Test G Pre-Emergence Protocol; details: Setaria faberi, pre-emergence, 312 h, evaluated after 13 days
How it was run: as §1

corn (Zea mays) [6] = assay: Test G Pre-Emergence Protocol; details: Zea mays, pre-emergence, 312 h, evaluated after 13 days
How it was run: as §1

[7] = tested on: ivy-leaved morning glory (Ipomoea hederacea); assay: Test G Post-Emergence Protocol; details: Ipomoea, post-emergence, 312 h
How it was run: (§2)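 Scores run 0 (no damage) to 100 (total damage) and were taken 13 days after spraying. Plants had been raised in pots for 8 days under glasshouse control (24/16 °C, 14 h photoperiod, 65% humidity) and then treated at 15.625, 62.5 or 250 g/ha.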

[8] = tested on: redroot pigweed (Amaranthus retroflexus); assay: Test G Post-Emergence Protocol; details: Amaranthus retroflexus, post-emergence, 312 h
How it was run: as §2

[9] = tested on: velvetleaf (Abutilon theophrasti); assay: Test G Post-Emergence Protocol; details: Abutilon theophrasti, post-emergence, 312 h
How it was run: as §2

[10] = tested on: barnyardgrass (Echinochloa crus-galli); assay: Test G Post-Emergence Protocol; details: Echinochloa crus-galli, post-emergence, 312 h
How it was run: as §2

[11] = tested on: giant foxtail (Setaria faberi); assay: Test G Post-Emergence Protocol; details: Setaria faberi, post-emergence, 312 h
How it was run: as §2

corn (Zea mays) [12] = assay: Test G Post-Emergence Protocol; details: Zea mays, post-emergence, 312 h
How it was run: as §2

For `CN1C[C@@H](c2ccc(C(F)(F)F)cc2)[C@H](C(=O)Nc2n[nH]c(C(F)(F)F)n2)C1=O` (racemic) [Compound 1540], the pest or weed control at 15.625 g/ha ([1]; 15.625 g ai/ha, read-out: Morning-glory, Ivy-leaved damage rating (100=total damage to plant; 0=no damage to plant)) was 0%, the pest or weed control at 62.5 g/ha ([1]; 62.5 g ai/ha, 100=total damage to plant, 0=no damage to plant, read-out: plant damage rating, Morningglory, Ivy-leaved) was 0% and the pest or weed control at 250 g/ha ([1]; 250 g ai/ha, read-out: Morningglory, Ivy-leaved damage rating (100=total damage to plant; 0=no damage to plant)) was 0%. For the same compound, the pest or weed control at 15.625 g/ha ([2]; 15.625 g ai/ha, read-out: Pigweed, Redroot damage rating (100=total damage to plant; 0=no damage to plant)) was 0%, the pest or weed control at 62.5 g/ha ([2]; 62.5 g ai/ha, 100=total damage to plant, 0=no damage to plant, read-out: plant damage rating, Pigweed, Redroot) was 0% and the pest or weed control at 250 g/ha ([2]; 250 g ai/ha, read-out: Pigweed, Redroot damage rating (100=total damage to plant; 0=no damage to plant)) was 40%. For the same compound, the pest or weed control at 15.625 g/ha ([3]; 15.625 g ai/ha, read-out: Velvetleaf damage rating (100=total damage to plant; 0=no damage to plant)) was 0%, the pest or weed control at 62.5 g/ha ([3]; 62.5 g ai/ha, 100=total damage to plant, 0=no damage to plant, read-out: plant damage rating, Velvetleaf) was 0% and the pest or weed control at 250 g/ha ([3]; 250 g ai/ha, read-out: Velvetleaf damage rating (100=total damage to plant; 0=no damage to plant)) was 0%. For the same compound, the pest or weed control at 15.625 g/ha ([4]; 15.625 g ai/ha, read-out: Barnyard grass damage rating (100=total damage to plant; 0=no damage to plant)) was 0%, the pest or weed control at 62.5 g/ha ([4]; 62.5 g ai/ha, 100=total damage to plant, 0=no damage to plant, read-out: plant damage rating, Barnyardgrass) was 0% and the pest or weed control at 250 g/ha ([4]; 250 g ai/ha, read-out: Barnyardgrass damage rating (100=total damage to plant; 0=no damage to plant)) was 0%. It also gave a pest or weed control at 15.625 g/ha ([5]; 15.625 g ai/ha, read-out: Foxtail, Giant damage rating (100=total damage to plant; 0=no damage to plant)) of 0%, a pest or weed control at 62.5 g/ha ([5]; 62.5 g ai/ha, 100=total damage to plant, 0=no damage to plant, read-out: plant damage rating, Foxtail, Giant) of 0% and a pest or weed control at 250 g/ha ([5]; 250 g ai/ha, read-out: Foxtail, Giant damage rating (100=total damage to plant; 0=no damage to plant)) of 0%. The plant injury at 15.625 g/ha (corn (Zea mays) [6]; 15.625 g ai/ha, read-out: Corn damage rating (100=total damage to plant; 0=no damage to plant)) was 0%, the plant injury at 62.5 g/ha (corn (Zea mays) [6]; 62.5 g ai/ha, 100=total damage to plant, 0=no damage to plant, read-out: plant damage rating, Corn) was 0% and the plant injury at 250 g/ha (corn (Zea mays) [6]; 250 g ai/ha, read-out: Corn damage rating (100=total damage to plant; 0=no damage to plant)) was 0%. It also gave a pest or weed control at 15.625 g/ha ([7]; 15.625 g ai/ha, evaluated after 13 days (100=total damage to plant; 0=no damage to plant), read-out: Morningglory, Ivy-leaved damage rating) of 0%, a pest or weed control at 62.5 g/ha ([7]; 62.5 g ai/ha, evaluated after 13 days, read-out: Morningglory, Ivy-leaved damage rating (100=total damage to plant; 0=no damage to plant)) of 10% and a pest or weed control at 250 g/ha ([7]; 250 g ai/ha, evaluated after 13 days, read-out: damage to plant, Morningglory, Ivy-leaved (100=total damage to plant; 0=no damage to plant)) of 10%. The pest or weed control at 15.625 g/ha ([8]; 15.625 g ai/ha, evaluated after 13 days (100=total damage to plant; 0=no damage to plant), read-out: Pigweed, Redroot damage rating) was 0%, the pest or weed control at 62.5 g/ha ([8]; 62.5 g ai/ha, evaluated after 13 days, read-out: Pigweed, Redroot damage rating (100=total damage to plant; 0=no damage to plant)) was 0% and the pest or weed control at 250 g/ha ([8]; 250 g ai/ha, evaluated after 13 days, read-out: damage to plant, Pigweed, Redroot (100=total damage to plant; 0=no damage to plant)) was 20%. It also gave a pest or weed control at 15.625 g/ha ([9]; 15.625 g ai/ha, evaluated after 13 days (100=total damage to plant; 0=no damage to plant), read-out: Velvetleaf damage rating) of 0%, a pest or weed control at 62.5 g/ha ([9]; 62.5 g ai/ha, evaluated after 13 days, read-out: Velvetleaf damage rating (100=total damage to plant; 0=no damage to plant)) of 0% and a pest or weed control at 250 g/ha ([9]; 250 g ai/ha, evaluated after 13 days, read-out: damage to plant, Velvetleaf (100=total damage to plant; 0=no damage to plant)) of 0%. It also gave a pest or weed control at 15.625 g/ha ([10]; 15.625 g ai/ha, evaluated after 13 days (100=total damage to plant; 0=no damage to plant), read-out: Barnyardgrass damage rating) of 0%, a pest or weed control at 62.5 g/ha ([10]; 62.5 g ai/ha, evaluated after 13 days, read-out: Barnyardgrass damage rating (100=total damage to plant; 0=no damage to plant)) of 0% and a pest or weed control at 250 g/ha ([10]; 250 g ai/ha, evaluated after 13 days, read-out: damage to plant, Barnyardgrass (100=total damage to plant; 0=no damage to plant)) of 0%. It also gave a pest or weed control at 15.625 g/ha ([11]; 15.625 g ai/ha, evaluated after 13 days (100=total damage to plant; 0=no damage to plant), read-out: Foxtail, Giant damage rating) of 0%, a pest or weed control at 62.5 g/ha ([11]; 62.5 g ai/ha, evaluated after 13 days, read-out: Foxtail, Giant damage rating (100=total damage to plant; 0=no damage to plant)) of 0% and a pest or weed control at 250 g/ha ([11]; 250 g ai/ha, evaluated after 13 days, read-out: damage to plant, Foxtail, Giant (100=total damage to plant; 0=no damage to plant)) of 0%. For the same compound, the plant injury at 15.625 g/ha (corn (Zea mays) [12]; 15.625 g ai/ha, evaluated after 13 days (100=total damage to plant; 0=no damage to plant), read-out: Corn damage rating) was 0%, the plant injury at 62.5 g/ha (corn (Zea mays) [12]; 62.5 g ai/ha, evaluated after 13 days, read-out: Corn damage rating (100=total damage to plant; 0=no damage to plant)) was 10% and the plant injury at 250 g/ha (corn (Zea mays) [12]; 250 g ai/ha, evaluated after 13 days, read-out: damage to plant, Corn (100=total damage to plant; 0=no damage to plant)) was 10%.
